Assay results as given in publication PMC10412597, “Small molecule branched-chain ketoacid dehydrogenase kinase (BDK) inhibitors with opposing effects on BDK protein levels” (Nature Communications, 2023).

Key:
Parameters in all cases: Invitrogen kinase panel, per cent inhibition of kinase activity
[1] = molecular target: AKT1 (Homo sapiens, UniProt P31749); conditions: 10 µM, inhibitor
Description: (§1) To discover a potent and selective BDK inhibitor, a subset of the Pfizer compound collection was screened. […] Off target activity was assessed in both CEREP and kinase panels (Supplementary Tables 2, 3).

[2] = molecular target: T1, AURKA (Homo sapiens, UniProt O14965); conditions: 10 µM, inhibitor
T1 sequence (O14965 1-403): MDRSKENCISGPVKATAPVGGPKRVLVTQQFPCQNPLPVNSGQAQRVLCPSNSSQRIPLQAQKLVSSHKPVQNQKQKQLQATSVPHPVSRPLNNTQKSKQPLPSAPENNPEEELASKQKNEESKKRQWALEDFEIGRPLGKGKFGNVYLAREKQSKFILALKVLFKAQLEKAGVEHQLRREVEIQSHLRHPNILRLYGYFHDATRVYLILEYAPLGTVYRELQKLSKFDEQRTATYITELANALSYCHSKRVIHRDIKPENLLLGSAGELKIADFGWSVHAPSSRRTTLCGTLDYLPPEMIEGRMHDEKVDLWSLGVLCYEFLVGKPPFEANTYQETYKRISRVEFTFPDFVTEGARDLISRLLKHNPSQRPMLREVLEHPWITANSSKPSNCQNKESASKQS
Description: as §1

[3] = molecular target: CAMK1 (Homo sapiens, UniProt Q14012); conditions: 10 µM, inhibitor
Description: as §1

[4] = molecular target: CHEK2 (Homo sapiens, UniProt O96017); conditions: 10 µM, inhibitor
Description: as §1

[5] = molecular target: CSK tyrosine Kinase (Homo sapiens, UniProt P41240); conditions: 10 µM, inhibitor
Description: as §1

[6] = molecular target: T2, HER4 (Homo sapiens, UniProt Q15303); conditions: 10 µM, inhibitor
T2 construct: gene ERBB4
Description: as §1

[7] = molecular target: LCK (Homo sapiens, UniProt P06239); conditions: 10 µM, inhibitor
Description: as §1

[8] = molecular target: MAPK1 (Homo sapiens, UniProt P28482); conditions: 10 µM, inhibitor
Description: as §1

[9] = molecular target: MARK1 (Homo sapiens, UniProt Q9P0L2); conditions: 10 µM, inhibitor
Description: as §1

[10] = molecular target: MARK3 (Homo sapiens, UniProt P27448); conditions: 10 µM, inhibitor
Description: as §1

[11] = molecular target: MET (Homo sapiens, UniProt P08581); conditions: 10 µM, inhibitor
Description: as §1

[12] = molecular target: T3, MSK1 (Homo sapiens, UniProt O75582); conditions: 10 µM, inhibitor
T3 construct: gene RPS6KA5
Description: as §1

[13] = molecular target: T4, Misshapen-like Kinase 1 (Homo sapiens, UniProt Q8N4C8); conditions: 10 µM, inhibitor
T4 construct: gene MINK1
Description: as §1

[14] = molecular target: PI4KB (Homo sapiens, UniProt Q9UBF8); conditions: 10 µM, inhibitor
Description: as §1

[15] = molecular target: PIK3C2B (Homo sapiens, UniProt O00750); conditions: inhibitor
Description: as §1

[16] = molecular target: PIK3C3 (Homo sapiens, UniProt Q8NEB9); conditions: 10 µM, inhibitor
Description: as §1

[17] = molecular target: PIM2 (Homo sapiens, UniProt Q9P1W9); conditions: 10 µM, inhibitor
Description: as §1

[18] = molecular target: PLK1 (Homo sapiens, UniProt P53350); conditions: 10 µM, inhibitor
Description: as §1

[19] = molecular target: T5, Phosphorylase B kinase gamma catalytic chain skeletal muscle isoform (Homo sapiens, UniProt Q16816); conditions: 10 µM, inhibitor
T5 construct: gene PHKG1
Description: as §1

[20] = molecular target: T6, SGK1 (Homo sapiens, UniProt O00141); conditions: 10 µM, inhibitor
T6 sequence (O00141 1-431): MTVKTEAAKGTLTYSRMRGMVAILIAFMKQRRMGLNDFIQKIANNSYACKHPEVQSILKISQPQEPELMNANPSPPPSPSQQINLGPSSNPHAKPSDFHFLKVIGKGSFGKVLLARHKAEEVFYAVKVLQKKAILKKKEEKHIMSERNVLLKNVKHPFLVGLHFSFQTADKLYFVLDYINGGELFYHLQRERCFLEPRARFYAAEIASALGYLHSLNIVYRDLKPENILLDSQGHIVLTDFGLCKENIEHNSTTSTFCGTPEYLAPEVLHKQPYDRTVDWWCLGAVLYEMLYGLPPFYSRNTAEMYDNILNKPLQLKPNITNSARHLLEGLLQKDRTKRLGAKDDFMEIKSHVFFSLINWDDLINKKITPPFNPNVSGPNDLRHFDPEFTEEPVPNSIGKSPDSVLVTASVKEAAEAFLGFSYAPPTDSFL
Description: as §1

Sequence of MET (P08581 whole entry): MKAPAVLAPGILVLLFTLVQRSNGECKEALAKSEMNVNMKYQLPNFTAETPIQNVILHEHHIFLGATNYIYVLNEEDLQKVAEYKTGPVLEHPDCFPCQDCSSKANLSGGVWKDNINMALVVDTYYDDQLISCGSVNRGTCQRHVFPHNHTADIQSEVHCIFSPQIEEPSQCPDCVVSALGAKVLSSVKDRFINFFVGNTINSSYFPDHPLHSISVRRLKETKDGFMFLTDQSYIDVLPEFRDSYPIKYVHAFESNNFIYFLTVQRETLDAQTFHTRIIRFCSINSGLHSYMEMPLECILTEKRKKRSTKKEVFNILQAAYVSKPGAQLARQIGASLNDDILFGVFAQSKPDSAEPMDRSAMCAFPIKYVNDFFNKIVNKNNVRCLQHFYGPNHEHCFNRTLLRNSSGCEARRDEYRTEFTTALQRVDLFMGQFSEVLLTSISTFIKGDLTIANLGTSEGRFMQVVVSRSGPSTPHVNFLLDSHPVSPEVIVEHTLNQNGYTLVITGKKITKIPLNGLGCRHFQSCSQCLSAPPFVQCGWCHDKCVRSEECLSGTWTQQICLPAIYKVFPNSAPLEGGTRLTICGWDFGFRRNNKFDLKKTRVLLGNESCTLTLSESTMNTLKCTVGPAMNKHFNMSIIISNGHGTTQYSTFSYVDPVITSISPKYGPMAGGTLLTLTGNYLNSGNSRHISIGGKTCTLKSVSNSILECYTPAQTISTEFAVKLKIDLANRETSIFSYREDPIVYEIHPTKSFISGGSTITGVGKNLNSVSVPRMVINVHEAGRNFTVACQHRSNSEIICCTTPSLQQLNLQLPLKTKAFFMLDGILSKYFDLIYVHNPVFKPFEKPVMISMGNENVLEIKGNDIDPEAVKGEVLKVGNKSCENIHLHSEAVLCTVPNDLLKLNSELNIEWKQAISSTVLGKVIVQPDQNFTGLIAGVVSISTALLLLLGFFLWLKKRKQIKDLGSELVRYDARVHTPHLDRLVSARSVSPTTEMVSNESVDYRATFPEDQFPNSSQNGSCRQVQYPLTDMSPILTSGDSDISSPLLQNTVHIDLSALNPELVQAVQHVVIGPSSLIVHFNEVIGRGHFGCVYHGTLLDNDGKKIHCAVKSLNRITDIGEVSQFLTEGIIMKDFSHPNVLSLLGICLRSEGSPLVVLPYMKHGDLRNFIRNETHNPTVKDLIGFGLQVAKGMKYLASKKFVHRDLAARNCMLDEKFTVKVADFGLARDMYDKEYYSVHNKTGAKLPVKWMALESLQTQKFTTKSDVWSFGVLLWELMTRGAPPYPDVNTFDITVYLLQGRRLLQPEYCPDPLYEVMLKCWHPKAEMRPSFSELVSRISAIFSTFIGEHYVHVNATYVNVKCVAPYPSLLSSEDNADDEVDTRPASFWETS
Sequence of LCK (P06239 whole entry): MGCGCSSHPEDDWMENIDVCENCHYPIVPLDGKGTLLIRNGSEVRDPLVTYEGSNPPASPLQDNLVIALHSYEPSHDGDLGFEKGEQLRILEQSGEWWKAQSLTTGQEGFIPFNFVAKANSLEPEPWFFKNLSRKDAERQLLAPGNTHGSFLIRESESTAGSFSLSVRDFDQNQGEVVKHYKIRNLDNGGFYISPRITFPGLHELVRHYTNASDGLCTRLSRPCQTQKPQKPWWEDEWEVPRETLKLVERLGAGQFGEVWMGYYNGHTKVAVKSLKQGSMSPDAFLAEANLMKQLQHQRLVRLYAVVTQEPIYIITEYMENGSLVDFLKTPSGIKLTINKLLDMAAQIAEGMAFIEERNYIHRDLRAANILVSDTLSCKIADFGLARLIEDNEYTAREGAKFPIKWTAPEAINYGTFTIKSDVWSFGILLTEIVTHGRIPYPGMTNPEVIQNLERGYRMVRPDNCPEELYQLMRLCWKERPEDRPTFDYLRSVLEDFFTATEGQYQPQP
Sequence of MARK1 (Q9P0L2 whole entry): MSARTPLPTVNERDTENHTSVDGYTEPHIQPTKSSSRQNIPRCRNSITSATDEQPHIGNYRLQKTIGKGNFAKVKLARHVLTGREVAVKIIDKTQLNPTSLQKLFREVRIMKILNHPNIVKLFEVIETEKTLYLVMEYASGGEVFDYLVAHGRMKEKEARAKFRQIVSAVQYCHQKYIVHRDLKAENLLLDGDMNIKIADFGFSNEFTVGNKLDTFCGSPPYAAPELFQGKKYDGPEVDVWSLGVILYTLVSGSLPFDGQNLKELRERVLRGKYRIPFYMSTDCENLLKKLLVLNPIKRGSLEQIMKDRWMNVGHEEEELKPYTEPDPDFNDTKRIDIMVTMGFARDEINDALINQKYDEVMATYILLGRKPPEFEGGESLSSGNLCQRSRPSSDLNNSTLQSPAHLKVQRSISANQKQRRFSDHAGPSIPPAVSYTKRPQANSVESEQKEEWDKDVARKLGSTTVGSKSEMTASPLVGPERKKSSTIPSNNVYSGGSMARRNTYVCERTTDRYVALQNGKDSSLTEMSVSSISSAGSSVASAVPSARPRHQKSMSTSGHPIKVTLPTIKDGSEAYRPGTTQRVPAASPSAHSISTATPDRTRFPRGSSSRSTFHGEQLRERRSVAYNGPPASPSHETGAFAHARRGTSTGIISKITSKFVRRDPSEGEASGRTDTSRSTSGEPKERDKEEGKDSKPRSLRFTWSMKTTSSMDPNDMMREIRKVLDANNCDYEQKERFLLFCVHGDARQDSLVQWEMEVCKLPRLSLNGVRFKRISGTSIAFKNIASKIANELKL
Sequence of MAPK1 (P28482 whole entry): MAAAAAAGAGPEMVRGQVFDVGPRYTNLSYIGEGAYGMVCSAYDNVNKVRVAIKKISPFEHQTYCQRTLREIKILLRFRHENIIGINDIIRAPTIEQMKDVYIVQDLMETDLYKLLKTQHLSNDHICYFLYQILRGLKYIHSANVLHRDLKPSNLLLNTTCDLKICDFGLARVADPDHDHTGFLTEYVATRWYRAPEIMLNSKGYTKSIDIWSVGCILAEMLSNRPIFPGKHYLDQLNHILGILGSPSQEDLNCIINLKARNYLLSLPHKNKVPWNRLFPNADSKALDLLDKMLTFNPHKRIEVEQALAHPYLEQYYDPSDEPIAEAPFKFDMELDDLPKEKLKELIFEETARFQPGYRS
Sequence of AKT1 (P31749 whole entry): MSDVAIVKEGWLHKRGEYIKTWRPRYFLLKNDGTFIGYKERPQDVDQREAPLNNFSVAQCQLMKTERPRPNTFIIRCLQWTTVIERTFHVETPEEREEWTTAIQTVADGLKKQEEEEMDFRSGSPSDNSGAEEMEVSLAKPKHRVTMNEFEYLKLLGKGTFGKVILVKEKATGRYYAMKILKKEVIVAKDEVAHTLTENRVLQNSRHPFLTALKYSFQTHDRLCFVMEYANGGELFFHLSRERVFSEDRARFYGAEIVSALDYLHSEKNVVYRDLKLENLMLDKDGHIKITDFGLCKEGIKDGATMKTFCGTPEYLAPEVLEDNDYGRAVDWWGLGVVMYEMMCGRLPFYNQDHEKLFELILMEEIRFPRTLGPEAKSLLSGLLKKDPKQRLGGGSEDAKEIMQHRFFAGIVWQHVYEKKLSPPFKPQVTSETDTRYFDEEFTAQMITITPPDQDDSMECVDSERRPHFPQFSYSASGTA
Sequence of CHEK2 (O96017 whole entry): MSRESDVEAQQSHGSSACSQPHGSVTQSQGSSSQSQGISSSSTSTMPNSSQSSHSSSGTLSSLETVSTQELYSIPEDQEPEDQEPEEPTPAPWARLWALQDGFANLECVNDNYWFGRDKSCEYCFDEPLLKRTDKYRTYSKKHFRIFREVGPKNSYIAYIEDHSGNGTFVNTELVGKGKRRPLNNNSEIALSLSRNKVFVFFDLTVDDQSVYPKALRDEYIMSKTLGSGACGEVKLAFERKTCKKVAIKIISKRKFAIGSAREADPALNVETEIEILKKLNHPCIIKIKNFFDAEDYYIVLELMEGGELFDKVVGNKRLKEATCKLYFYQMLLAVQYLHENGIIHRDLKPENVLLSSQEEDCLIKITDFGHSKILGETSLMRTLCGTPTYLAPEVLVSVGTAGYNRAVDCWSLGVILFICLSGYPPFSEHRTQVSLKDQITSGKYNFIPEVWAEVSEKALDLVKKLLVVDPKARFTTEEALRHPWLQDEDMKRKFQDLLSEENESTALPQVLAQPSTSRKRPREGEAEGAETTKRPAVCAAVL
Sequence of PIM2 (Q9P1W9 whole entry): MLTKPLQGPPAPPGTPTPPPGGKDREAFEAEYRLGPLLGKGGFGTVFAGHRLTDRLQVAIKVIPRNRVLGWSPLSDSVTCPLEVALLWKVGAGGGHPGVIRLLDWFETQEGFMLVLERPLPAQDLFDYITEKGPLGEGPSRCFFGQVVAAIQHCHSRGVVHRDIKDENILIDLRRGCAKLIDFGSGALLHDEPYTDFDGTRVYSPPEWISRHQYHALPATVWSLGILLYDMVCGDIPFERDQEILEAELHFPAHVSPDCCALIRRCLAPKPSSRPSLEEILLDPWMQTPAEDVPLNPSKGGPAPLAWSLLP
T5 sequence (Q16816 whole entry, canonical isoform): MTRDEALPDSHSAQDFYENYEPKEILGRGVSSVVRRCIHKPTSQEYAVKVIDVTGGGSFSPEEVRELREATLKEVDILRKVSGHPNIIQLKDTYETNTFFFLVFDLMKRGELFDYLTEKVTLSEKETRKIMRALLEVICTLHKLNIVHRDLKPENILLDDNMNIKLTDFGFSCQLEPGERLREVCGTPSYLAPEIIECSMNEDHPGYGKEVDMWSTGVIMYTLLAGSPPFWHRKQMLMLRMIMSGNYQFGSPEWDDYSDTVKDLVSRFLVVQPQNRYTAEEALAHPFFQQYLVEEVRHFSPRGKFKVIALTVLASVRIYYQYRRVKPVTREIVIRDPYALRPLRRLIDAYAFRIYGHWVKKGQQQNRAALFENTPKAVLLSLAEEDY

Compound: O=C(O)c1sc2cc(F)sc2c1Cl [PF-07208254, 3-chloro-5-fluorothieno[3,2-b]thiophene-2-carboxylic acid]
- ATP = 1 mM % Inhibition PF-07208254 [1]: -0.8%
- ATP = Km % Inhibition PF-07208254 [1]: 6.7%
- ATP = 1 mM % Inhibition PF-07208254 [2]: -2.6%
- ATP = Km % Inhibition PF-07208254 [2]: 9.4%
- ATP = 100 uM % Inhibition PF-07208254 [3]: -7.9%
- ATP = 1 mM % Inhibition PF-07208254 [4]: -0.7%
- ATP = Km % Inhibition PF-07208254 [4]: 6.7%
- ATP = Km % Inhibition PF-07208254 [5]: 2.9%
- ATP = Km % Inhibition PF-07208254 [6]: -11.4%
- ATP = 1 mM % Inhibition PF-07208254 [7]: 9.9%
- ATP = Km % Inhibition PF-07208254 [7]: 20.6%
- ATP = 1 mM % Inhibition PF-07208254 [8]: 2.8%
- ATP = Km % Inhibition PF-07208254 [8]: 9.4%
- ATP = 1 mM % Inhibition PF-07208254 [9]: 8.4%
- ATP = Km % Inhibition PF-07208254 [9]: 2.1%
- ATP = Km % Inhibition PF-07208254 [10]: 5.0%
- ATP = 1 mM % Inhibition PF-07208254 [11]: -10.2%
- ATP = Km % Inhibition PF-07208254 [11]: -3.1%
- ATP = Km % Inhibition PF-07208254 [12]: 2.7%
- ATP = Km % Inhibition PF-07208254 [13]: -3.3%
- ATP = Km % Inhibition PF-07208254 [14]: 7.9%
- ATP = 10 uM % Inhibition PF-07208254 [15]: 3.5%
- ATP = Km % Inhibition PF-07208254 [16]: 7.3%
- ATP = 1 mM % Inhibition PF-07208254 [17]: -5.2%
- ATP = Km % Inhibition PF-07208254 [17]: 22.3%
- ATP = Km % Inhibition PF-07208254 [18]: 1.8%
- ATP = Km % Inhibition PF-07208254 [19]: 1.8%
- ATP = 1 mM % Inhibition PF-07208254 [20]: 1.9%
- ATP = Km % Inhibition PF-07208254 [20]: -0.1%

Compound: CCC1(COc2ccc(-c3csc(-c4ccccc4C(=O)O)n3)cn2)CC1 [PF-07247685, 2-(4-{6-[(1-ethylcyclopropyl)methoxy]pyridin-3-yl}-1,3-thiazol-2-yl)benzoic acid]
- ATP = 1 mM % Inhibition PF-07247685 [1]: -0.8%
- ATP = Km % Inhibition PF-07247685 [1]: 2.4%
- ATP = 1 mM % Inhibition PF-07247685 [2]: 2.2%
- ATP = Km % Inhibition PF-07247685 [2]: 8.9%
- ATP = 100 uM % Inhibition PF-07247685 [3]: -5.1%
- ATP = 1 mM % Inhibition PF-07247685 [4]: -0.2%
- ATP = Km % Inhibition PF-07247685 [4]: 3.8%
- ATP = Km % Inhibition PF-07247685 [5]: 4.3%
- ATP = Km % Inhibition PF-07247685 [6]: 7.2%
- ATP = 1 mM % Inhibition PF-07247685 [7]: 3.0%
- ATP = Km % Inhibition PF-07247685 [7]: 5.9%
- ATP = 1 mM % Inhibition PF-07247685 [8]: 2.4%
- ATP = Km % Inhibition PF-07247685 [8]: 7.0%
- ATP = 1 mM % Inhibition PF-07247685 [9]: 7.5%
- ATP = Km % Inhibition PF-07247685 [9]: 4.3%
- ATP = Km % Inhibition PF-07247685 [10]: 2.1%
- ATP = 1 mM % Inhibition PF-07247685 [11]: -2.2%
- ATP = Km % Inhibition PF-07247685 [11]: -0.3%
- ATP = Km % Inhibition PF-07247685 [12]: -1.4%
- ATP = Km % Inhibition PF-07247685 [13]: 21.9%
- ATP = Km % Inhibition PF-07247685 [14]: 7.1%
- ATP = 10 uM % Inhibition PF-07247685 [15]: 2.0%
- ATP = Km % Inhibition PF-07247685 [16]: 3.0%
- ATP = 1 mM % Inhibition PF-07247685 [17]: 0.9%
- ATP = Km % Inhibition PF-07247685 [17]: 0.1%
- ATP = Km % Inhibition PF-07247685 [18]: 10.1%
- ATP = Km % Inhibition PF-07247685 [19]: 2.2%
- ATP = 1 mM % Inhibition PF-07247685 [20]: -5.1%
- ATP = Km % Inhibition PF-07247685 [20]: 0.7%
